Reference: patent US5646128A, “Methods for treating adenosine kinase related conditions” (priority 1994, dated 1997)
Entries after “also recorded” stand apart in the source; their conditions may differ.

Key:
[1] = cited from earlier work
[2] = test system: fMLP-stimulated human neutrophils on human umbilical vein endothelial cells; experiment: Inhibition of neutrophil adherence to endothelial cells; format: cell-based; conditions: for inhibition of neutrophil adhesion to endothelial cells: fMLP-stimulated neutrophils, 2 hours, 37° C.; for effect of adenosine deaminase co-treatment on inhibition of neutrophil adhesion: with adenosine deaminase 0.125 U/mL
Protocol: The ability of an adenosine kinase inhibitor to affect neutrophil adherence to fibroblasts and endothelial cells was evaluated in a cell culture model. […] These incubations were carried out in the presence of fMLP-stimulated human neutrophils isolated from whole blood (1.25×10^6/mL) with or without adenosine deaminase (0.125 U/mL). At the end of the incubation, the medium was removed and the monolayers of fibroblasts or endothelial cells and adherent neutrophils were fixed by addition of formaldehyde (3.7%) and, after washing to remove non-adherent neutrophils, adherent neutrophils were stained with Weigart's hematoxylin and counted under a light microscope.

[3] = test system: adenosine uptake, rat brain slices; conditions: cited from earlier work
[4] = test system: Mycobacterium butyricum adjuvant arthritis; experiment: Adjuvant arthritis in rats; format: in vivo, Lewis rats
Protocol: Lewis rats received a single subcutaneous tail injection of 0.75 mg Mycobacterium butyricum mixed in paraffin oil on day 0. […] Hind paw volume was measured by Mercury displacement.

[5] = mouse, in vivo; cited from earlier work
[6] = test system: adenosine uptake, guinea pig brain slices; conditions: cited from earlier work
[7] = test system: TNF-α; experiment: Inhibition of TNF-alpha production in endotoxemic mice (ELISA); format: in vivo, Balb/C mice; conditions: 200 mg/kg i.p. 30 minutes prior to LPS and GP-1-515
Protocol: In these experiments, plasma TNF-α levels were measured in GP-1-515and placebo-treated mice (8 animals per group). Balb/C mice received an intravenous injection of E. coli LPS (900 ug/animal) (Sigma Chemical Co.) followed immediately by a second injection with 0.1 mg/kg of GP-1-515 or vehicle. Some animals were pretreated with an intraperitoneal injection of the adenosine receptor antagonist 8SPT. One hour later, blood was obtained from ether anesthetized animals by intracardiac puncture using a heparinized syringe. Blood samples were chilled on ice, centrifuged at 5000 rpm in a microcentrifuge for 5 minutes, and the plasma removed. TNF-α levels in the plasma were assayed by ELISA according to the instructions provided by the manufacturer (Endogen, Cambridge, Mass.).

[8] = test system: E. coli LPS endotoxemia; experiment: Survival in endotoxemia (E. coli LPS) in mice; format: in vivo, Balb/C mice; conditions: 200 mg/kg i.p. 30 minutes prior to LPS and drug
Excerpt: An adenosine kinase inhibitor (GP-1-515) was used to increase endogenous adenosine production in vivo.

[9] = molecular target: T1, purified pig heart adenosine kinase (Sus scrofa, UniProt A0A5G2R0F5); experiment: Inhibition of adenosine kinase activity (purified pig heart enzyme); format: biochemical
T1 construct: purified pig heart adenosine kinase; from tissue; host or cells: pig heart
T1 sequence (A0A5G2R0F5 1-362): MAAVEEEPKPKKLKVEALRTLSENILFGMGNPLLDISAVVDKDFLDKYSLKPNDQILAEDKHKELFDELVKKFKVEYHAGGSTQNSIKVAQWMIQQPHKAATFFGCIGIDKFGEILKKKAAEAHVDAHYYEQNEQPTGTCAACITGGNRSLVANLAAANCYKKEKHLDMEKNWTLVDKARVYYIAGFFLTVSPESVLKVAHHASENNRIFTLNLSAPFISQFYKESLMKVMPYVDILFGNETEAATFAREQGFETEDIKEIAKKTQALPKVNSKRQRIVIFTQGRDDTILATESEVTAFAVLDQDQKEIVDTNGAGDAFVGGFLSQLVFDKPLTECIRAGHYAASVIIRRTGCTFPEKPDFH
Protocol: Inhibition of enzyme activity was determined using a 0.1 mL assay mixture containing 50 mM Tris-maleate, pH 7.0, 0.1% (w/v) BSA, 1 mM ATP, 1 mM MgCl2, 0.5 μM [U-^14 C]adenosine (500 mCi/mmol) and 0.1 μg of purified pig heart adenosine kinase. Different concentrations of the test compounds were incubated in the assay mixture for 20 min. at 37° C. From each reaction mixture, 20 μl portions were removed and spotted on 2 cm^2 pieces of Whatman DE81 filter paper. […] The papers were dried, and [^14 C]AMP measured by scintillation counting.

[10] = Acute i.v. hemodynamics in the rat; format: in vivo, Sprague Dawley rats
Protocol: The ability of the adenosine kinase inhibitor GP-1-238 to show effects on blood pressure, heart rate or body temperature was compared in anesthetized and conscious rats. Sprague Dawley rats were anesthetized with pentobarbital and catheterized in the jugular vein and carotid artery. GP-1-238 (0.1-5 mg/kg/min) was infused intravenously in stepwise increments (0.2 mL/min×5 minutes). The experiments in conscious rats were conducted in the same manner after rats had been catheterized and allowed to recover for 2 days following surgery.

[11] = test system: cardiac adenosine kinase; experiment: Inhibition of cardiac adenosine kinase in vivo; conditions: conscious rats, i.v.
[12] = test system: adenosine release, rat cardiomyocytes; conditions: cited from earlier work
[13] = molecular target: T2, adenosine kinase (Bos taurus, UniProt A0AAA9RZ79); experiment: Adenosine kinase inhibition in intact cells (capillary endothelial cells from bovine heart); format: cell-based; conditions: 20 μM 2'-deoxycoformycin, 5 μM [3H]adenosine
T2 construct: endogenous in cells; host or cells: capillary endothelial cells from bovine heart
T2 sequence (A0AAA9RZ79 1-362): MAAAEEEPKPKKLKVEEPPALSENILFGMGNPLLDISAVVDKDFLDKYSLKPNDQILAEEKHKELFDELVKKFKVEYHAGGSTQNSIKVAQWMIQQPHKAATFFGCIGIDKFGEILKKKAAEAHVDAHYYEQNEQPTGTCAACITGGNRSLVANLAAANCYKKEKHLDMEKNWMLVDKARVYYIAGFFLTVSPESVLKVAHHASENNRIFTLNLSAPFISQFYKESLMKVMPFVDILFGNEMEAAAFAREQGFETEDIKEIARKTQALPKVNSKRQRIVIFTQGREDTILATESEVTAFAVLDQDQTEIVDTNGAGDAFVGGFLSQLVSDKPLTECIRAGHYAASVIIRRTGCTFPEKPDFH
Protocol: Inhibition of adenosine kinase in intact cells was determined from the amount of incorporation of radioisotope from adenosine into the adenylates (AMP, ADP and ATP) in the presence of adenosine deaminase inhibition. […] The media was then discarded and the cells were treated with 50 μl 0.4M perchloric acid, centrifuged and the supernalants neutralized with 100 μl alanine: freon (1:4).

[14] = test system: adenosine release, isolated guinea pig hearts; conditions: cited from earlier work
[15] = conscious animals, doses greatly in excess of that required to inhibit cardiac adenosine kinase

Structure (SMILES): C[C@H]1O[C@@H](n2cc(I)c3c(N)ncnc32)[C@H](O)[C@@H]1O [GP-1-456, 5'-deoxy-5-iodotubercidin]
- blood pressure and heart rate in anesthetized rats [1]: decrease blood pressure and heart rate
- inhibition of neutrophil adhesion to endothelial cells [2]: inhibit neutrophil adhesion to endothelial cells; also recorded: dose-dependent inhibition
- effect of adenosine deaminase co-treatment on inhibition of neutrophil adhesion [2]: reversed by adenosine deaminase treatment; also recorded: reversal of this inhibition
- adenosine uptake, rat brain slices [3]: inhibited
- reduction of hind paw edema ([4]; 3 mg/kg p.o.): significant reduction of hind paw edema
- total mean hind paw edema ([4]; 3 mg/kg p.o. day 1 through 19, day 19, untreated 2.55±0.20, p<0.05): 1.41 ± 0.21 mL
- body temperature in mice [5]: hypothermia
- flaccidity and locomotor activity in mice [5]: pronounced general flaccidity and much-reduced spontaneous locomotor activity
- adenosine uptake, guinea pig brain slices [6]: inhibited

Structure (SMILES): Cn1c(=O)c2[nH]c(-c3ccc(S(=O)(=O)O)cc3)nc2n(C)c1=O [8-p-sulphophenyltheophylline, reference compound]
- effect on GP-1-515-induced decrease of plasma TNF-α [7]: The decrease was prevented
- effect on GP-1-515-induced protection [8]: completely inhibited the protective effect of GP-1-515; also recorded: blocking the GP-1-515-induced protection

Structure (SMILES): OC[C@H]1O[C@@H](n2cc(-c3ccco3)c3c(Nc4ccccc4)ncnc32)[C@H](O)[C@@H]1O [GP-1-718]
- IC50 [9]: < 10 nM

Structure (SMILES): CNc1ncnc2c1ncn2[C@@H]1O[C@H](CN)[C@@H](O)[C@H]1O [GP-1-272]
- inhibition of neutrophil adhesion to endothelial cells [2]: inhibit neutrophil adhesion to endothelial cells; also recorded: dose-dependent inhibition
- effect of adenosine deaminase co-treatment on inhibition of neutrophil adhesion [2]: reversed by adenosine deaminase treatment; also recorded: reversal of this inhibition

Structure (SMILES): NC[C@H]1O[C@@H](n2cnc3c(N)ncnc32)[C@H](O)[C@@H]1O [GP-1-238]
- effect on blood pressure, conscious animals [10, 15]: No effects were observed
- effect on heart rate, conscious animals [10, 15]: No effects were observed
- effect on temperature, conscious animals [10, 15]: No effects were observed
- hemodynamic effects, conscious rats ([10]; i.v. infusion 0.1-5 mg/kg/min, conscious rats, in contrast to anesthetized animals): no hemodynamic effects were seen
- inhibition of adenosine kinase in vivo [11]: completely inhibited adenosine kinase in vivo

Structure (SMILES): OC[C@H]1O[C@@H](n2cnc3c2N=CNC[C@H]3O)C[C@@H]1O [2'-deoxycoformycin]
- adenosine release from rat cardiomyocytes ([12]; ADA inhibition alone): no effect on adenosine release

Structure (SMILES): C[C@H]1O[C@@H](n2nc(-c3ccccc3)c3c(Nc4ccccc4)ncnc32)[C@H](O)[C@@H]1O [GP-1-665]
- IC50 [13]: 4.5 nM

Structure (SMILES): NC[C@H]1O[C@@H](n2cnc3c(N)ncnc32)[C@H](O)[C@@H]1O [5'-amino-5'-deoxyadenosine]
- adenosine release, isolated guinea pig hearts, no ADA inhibition ([14]; absence of ADA inhibition): not apparent in the absence of ADA inhibition
- increase of adenosine release, isolated guinea pig hearts ([14]; in the presence of EHNA): 15 -fold
- increase in adenosine release from rat cardiomyocytes ([12]; inhibition of ADA together with adenosine kinase): 6 -fold
